The source of these data is patent EP2072621A1, “Solvent tolerant microorganisms” (DSM IP Assets B.V., priority 2007, dated 2009).

Like-named read-outs stand apart in the source and are kept apart here.

Assay [1] has as its system L. fructivorans ATCC 8288. The settings on record: 30 degrees C; for Relative growth rate: reference at 0 g/L = 1.00. The procedure: (§1) MRS medium oxoid (CM0359, Merck KgaA, Germany) was prepared according to manufacturer's instructions and filled out in 50 ml Schott flasks and sterilized at 121 degrees C during 15 minutes. 1 vial of thawed frozen culture was inoculated to 50 ml of this medium and the cultures were subsequently incubated overnight at 30 degrees C standing still or during 2 nights if no clear growth (whitening) had occurred yet. 20 microliter of this culture was inoculated to 180 microliter of microtiter plate (MTP) medium. The pH of this medium was approximately 6.0.
(§2) After inoculation, every 20 minutes the optical density at 620 nm was measured in the wells of the microtiter plate using a Multiscan Ascent photometer (Thermo Fisher Scientific, Inc.), while the temperature was controlled at 30 degrees C. Total time of measurement was maximally 24 hours. Before measurements were taken, the microtiter plates were shaken for 30 seconds to homogenize any settled biomass.
(§3) The growth rate was calculated using the exponential phase of the growth curve, based on the optical density measurement. The relative growth rate was calculated using the reference at 0 g/L as 1.00. […] Table 3 Relative growth rate
(§4) IC50(%) values were determined for the Lactobacilli at 30 degrees C by using a polynomial second order fit through the relative growth rate data and are presented in Table 4. […]

Assay [2] has as its system L. plantarum ATCC 8014. As to conditions: 30 degrees C; for Relative growth rate: reference at 0 g/L = 1.00. The method, then:
as §1, §2, §3, §4

Assay [3] has as its system Lactobacilli. As to conditions: butanol concentration of 2.5 w/v%. The procedure: as §1, §2, §3, §4
Assay [4] concerns L. casei from commercial rennet. As to conditions: 30 degrees C; for Relative growth rate: reference at 0 g/L = 1.00. The procedure:
as §1, §2, §3, §4

The test system of assay [5] is L. casei ADRIA 85 L121. The settings on record: 30 degrees C; for Relative growth rate: reference at 0 g/L = 1.00. The procedure: as §1, §2, §3, §4
Setting [6] is: polynomial second order fit through the relative growth rate data.

Turning to butanol, the IC50% is on record as 2.1 w/v % in assay [1] (setting [6]), 2.2 w/v % in assay [2] (setting [6]), 1.9 w/v % in assay [4] (setting [6]) and 2.0 w/v % in assay [5] (setting [6]). The Relative growth rate in assay [1] (Butanol concentration 0.5 w/v%) is 0.94; in assay [1] (Butanol concentration 1 w/v%), 0.89; in assay [1] (Butanol concentration 1.5 w/v%), 0.78; in assay [1] (Butanol concentration 2.5 w/v%) it was 0.28; in assay [2] (Butanol concentration 0.5 w/v%), 0.97; in assay [2] (Butanol concentration 1 w/v%), 0.90. Also, the Relative growth rate worked out at 0.77 in assay [2] (Butanol concentration 1.5 w/v%); 0.37 in assay [2] (Butanol concentration 2.5 w/v%); 0.88 in assay [4] (Butanol concentration 0.5 w/v%); 0.79 in assay [4] (Butanol concentration 1 w/v%); 0.68 in assay [4] (Butanol concentration 1.5 w/v%); 0.24 in assay [4] (Butanol concentration 2.5 w/v%). Also, the Relative growth rate in assay [5] (Butanol concentration 0.5 w/v%) turned out to be 0.96; in assay [5] (Butanol concentration 1 w/v%) it was 0.89; in assay [5] (Butanol concentration 1.5 w/v%) it was 0.73; in assay [5] (Butanol concentration 2.5 w/v%), 0.21. Besides, the “growth in presence of butanol” value in assay [3] was “can still grow”.
